Reference: PubChem BioAssay (NCI)
Values joined by “and” are separate entries in the source; they are usually repeats but may differ in a detail not shown here. Equal values may be shown once.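 48-hour exposure; five concentrations; linearly interpolated endpoints. GI50 marks 50% less growth. TGI: total growth inhibition.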

Key:
Experiment in all cases: NCI tumour cell line growth inhibition, 48 h
[1] = tested on: HCT-15 colon
[2] = tested on: SNB-75 CNS
[3] = tested on: KM12 colon
[4] = tested on: SR leukemia
[5] = tested on: HOP-62 NSCLC
[6] = tested on: BT-549 breast
[7] = tested on: HT29 colon
[8] = tested on: SK-OV-3 ovarian
[9] = tested on: A549 NSCLC
[10] = tested on: EKVX NSCLC

Structure (SMILES): COc1ccc(/C=C2/CCc3cc4ccc(OC)cc4[o+]c32)c(O)c1
- GI50 [1]: 2.25 µM
- TGI [1]: 6.03 µM
- GI50 [2]: 12.9 µM
- TGI [2]: 27.9 µM
- GI50 [3]: 2.65 µM
- TGI [3]: 7.44 µM
- GI50 [4]: 3.04 µM
- TGI [4]: 45.6 µM
- GI50 [5]: 13.1 µM
- TGI [5]: 28 µM
- GI50 [6]: 12.1 µM
- TGI [6]: 31.7 µM
- GI50 [7]: 2.12 µM
- TGI [7]: 4.67 µM
- GI50 [8]: 12.3 µM
- TGI [8]: 25.3 µM
- GI50 [9]: 18.5 µM
- TGI [9]: 41.6 µM
- GI50 [10]: 12.5 µM
- TGI [10]: 26.8 µM

Structure (SMILES): CCCCCCCCCCN=C(c1ccc(N(C)C)cc1)c1ccc(N(C)C)cc1
- GI50 [1]: 0.365 µM
- TGI [1]: > 100 µM
- GI50 [2]: 0.4 µM
- TGI [2]: 6.69 µM
- GI50 [3]: 0.414 µM
- TGI [3]: > 75.8 µM
- GI50 [4]: 0.211 µM
- TGI [4]: > 46.8 µM
- GI50 [5]: 1.06 µM
- TGI [5]: 31.8 µM
- GI50 [6]: 0.857 µM
- TGI [6]: 52.9 µM
- GI50 [7]: 0.351 µM
- TGI [7]: 18.5 µM
- GI50 [8]: 1.44 µM
- TGI [8]: 40.3 µM
- GI50 [9]: 2.53 µM
- TGI [9]: > 77.6 µM
- GI50 [10]: 1.04 µM
- TGI [10]: > 100 µM

Structure (SMILES): CC1(C)CC[C@H](C2=CC(=O)c3c(O)ccc(O)c3C2=O)O1
- GI50 [1]: 1.71 µM and 0.378 µM and 0.226 µM
- TGI [1]: 4.11 µM and 1.64 µM and 0.65 µM
- GI50 [2]: 8.53 µM and 2.87 µM and 0.95 µM
- TGI [2]: 27.7 µM and 4.02 µM
- GI50 [3]: 6.25 µM and 1.69 µM and 1.83 µM
- TGI [3]: 14.2 µM and 3.2 µM and 3.45 µM
- GI50 [4]: 0.0764 µM
- TGI [4]: 1.46 µM
- TGI [5]: 9.96 µM and 6.57 µM
- GI50 [6]: 0.963 µM and 0.358 µM
- TGI [6]: 2.19 µM and 1.13 µM
- GI50 [7]: 3.17 µM and 1.72 µM and 0.773 µM
- TGI [7]: 7.29 µM and 3.63 µM and 1.83 µM
- GI50 [8]: 4.81 µM
- TGI [8]: 18.8 µM and 13.7 µM
- GI50 [9]: 9.2 µM and 3.48 µM and 3.31 µM
- TGI [9]: 30 µM and 10 µM
- GI50 [10]: 4.7 µM and 1.48 µM and 1.35 µM
- TGI [10]: 11.8 µM and 3.03 µM and 3.95 µM

Structure (SMILES): Cc1ccccc1Nc1nc2c(s1)C(=O)c1ccccc1C2=O
- TGI [1]: 10.7 µM
- TGI [2]: 29.9 µM
- TGI [3]: 23.4 µM
- TGI [4]: 11.4 µM
- TGI [5]: 30.2 µM
- TGI [6]: 6.57 µM
- TGI [7]: 40.7 µM
- TGI [8]: 38 µM
- TGI [9]: 27.9 µM
- TGI [10]: 21 µM

Structure (SMILES): OB1OCc2cc(/C=C/c3cccc(C(F)(F)F)c3)ccc21
- GI50 [1]: 1.33 µM
- TGI [1]: > 100 µM
- GI50 [2]: 0.852 µM
- TGI [2]: 6.2 µM
- GI50 [3]: 2.26 µM
- TGI [3]: > 100 µM
- GI50 [4]: 0.318 µM
- TGI [4]: 11.6 µM
- GI50 [5]: 0.483 µM
- TGI [5]: 17.4 µM
- GI50 [6]: 2.26 µM
- TGI [6]: > 100 µM
- GI50 [7]: 1.44 µM
- TGI [7]: > 100 µM
- GI50 [8]: 2.9 µM
- TGI [8]: 63.5 µM
- GI50 [9]: 0.695 µM
- TGI [9]: 19.6 µM
- GI50 [10]: 3.65 µM
- TGI [10]: > 100 µM

Structure (SMILES): Cc1ncc(C(=O)Nc2ccc(CN3CCN(C)CC3)c(C(F)(F)F)c2)cc1C#Cc1cnc(NC2CC2)c2ncccc12
- GI50 [1]: 0.566 µM
- TGI [1]: 1.1 µM
- GI50 [2]: 1.81 µM
- TGI [2]: 5.75 µM
- GI50 [3]: 0.197 µM
- TGI [3]: 0.819 µM
- GI50 [4]: 0.493 µM
- TGI [4]: 1.27 µM
- GI50 [5]: 1.41 µM
- TGI [5]: 3.06 µM
- GI50 [6]: 4.28 µM
- TGI [6]: 8.56 µM
- GI50 [7]: 0.474 µM
- TGI [7]: 1.31 µM
- GI50 [8]: 3.39 µM
- TGI [8]: 7.66 µM
- GI50 [9]: 0.682 µM
- TGI [9]: 1.33 µM
- GI50 [10]: 0.659 µM
- TGI [10]: 1.21 µM

Structure (SMILES): Cn1c(/C(C#N)=C/c2ccc3ccccc3c2)cc2ccccc21
- GI50 [1]: 0.0934 µM
- TGI [1]: > 100 µM
- GI50 [2]: 0.0628 µM
- TGI [2]: > 92.7 µM
- GI50 [3]: 0.114 µM
- TGI [3]: > 100 µM
- GI50 [4]: 0.114 µM
- TGI [4]: > 100 µM
- GI50 [5]: 0.357 µM
- TGI [5]: > 100 µM
- GI50 [6]: 0.474 µM
- TGI [6]: > 100 µM
- GI50 [7]: 0.353 µM
- TGI [7]: > 100 µM
- GI50 [8]: > 100 µM
- TGI [8]: > 100 µM
- GI50 [9]: 0.247 µM
- TGI [9]: > 100 µM
- GI50 [10]: 0.471 µM
- TGI [10]: > 100 µM

Structure (SMILES): CCN(CC)CCNC(=O)c1c(C)[nH]c(/C=C2\C(=O)Nc3ccc(F)cc32)c1C
- GI50 [1]: 1.22 µM and 1.23 µM and 1.13 µM
- TGI [1]: > 10 µM and 20 µM and 13.3 µM
- GI50 [2]: 4.61 µM and 2.11 µM and 4.33 µM
- TGI [2]: > 10 µM and 4.55 µM and 14 µM
- GI50 [3]: 0.11 µM and 0.1 µM and 0.0322 µM
- TGI [3]: > 10 µM and 3.03 µM and 5.54 µM
- GI50 [4]: 1.97 µM and 4.56 µM and 1.27 µM
- TGI [4]: 5.11 µM and 14.2 µM and 3.74 µM
- GI50 [5]: 5.27 µM and 2.42 µM and 2.64 µM
- TGI [5]: > 10 µM and 5.94 µM and 15.3 µM
- GI50 [6]: 4.84 µM and 3.32 µM and 3.67 µM
- TGI [6]: > 10 µM and 6.12 µM and 12.6 µM
- GI50 [7]: 1.07 µM and 1.3 µM and 1.54 µM
- TGI [7]: 5.21 µM and 4.99 µM and 3.69 µM
- GI50 [8]: 2.44 µM and 2.26 µM and 3.51 µM
- TGI [8]: > 10 µM and 5.43 µM and 19.6 µM
- GI50 [9]: 5.52 µM and 2.97 µM and 3.85 µM
- TGI [9]: > 10 µM and 6.44 µM and 17.6 µM
- GI50 [10]: > 10 µM and 5.27 µM and 8.38 µM
- TGI [10]: > 10 µM and 20 µM and 21.9 µM

Structure (SMILES): CCCCCCCCCCCC[n+]1ccccc1 (tested in a mixture with another compound)
- GI50 [1]: 3.8 µM
- TGI [1]: 19.3 µM
- GI50 [2]: 1.08 µM
- TGI [2]: 3.84 µM
- GI50 [3]: 0.38 µM
- TGI [3]: 1.59 µM
- GI50 [4]: 0.156 µM
- TGI [4]: 3.11 µM
- GI50 [5]: 1.15 µM
- TGI [5]: 3.59 µM
- GI50 [6]: 0.268 µM
- TGI [6]: 1.06 µM
- GI50 [7]: 0.28 µM
- TGI [7]: 4.21 µM
- GI50 [8]: 1.16 µM
- TGI [8]: 3.74 µM
- GI50 [9]: 1.68 µM
- TGI [9]: 4.43 µM
- GI50 [10]: 0.428 µM
- TGI [10]: 5.13 µM

Structure (SMILES): C=C1CC2(OC1=O)C(=O)N(CCCN1C(=O)C3(CC(=C)C(=O)O3)c3ccccc31)c1ccccc12 (centres undefined)
- GI50 [1]: 0.956 µM
- TGI [1]: 2.55 µM
- GI50 [2]: 3.44 µM
- TGI [2]: 26.8 µM
- GI50 [3]: 2.72 µM
- TGI [3]: 12 µM
- GI50 [4]: 0.33 µM
- TGI [4]: 1.35 µM
- GI50 [5]: 7.34 µM
- TGI [5]: 21.8 µM
- GI50 [6]: 2.69 µM
- TGI [6]: 9.65 µM
- GI50 [7]: 1.85 µM
- TGI [7]: 4.91 µM
- GI50 [8]: 11.4 µM
- TGI [8]: 23.7 µM
- GI50 [9]: 10.4 µM
- TGI [9]: 24 µM
- GI50 [10]: 13.6 µM
- TGI [10]: 26.7 µM

Structure (SMILES): O=S(=O)(CCOCc1ccc(-c2ccc3ncnc(Nc4ccc(OCc5cccc(F)c5)c(Cl)c4)c3c2)o1)c1ccccc1
- GI50 [1]: > 25 µM
- TGI [1]: > 25 µM
- GI50 [2]: > 25 µM
- TGI [2]: > 25 µM
- GI50 [3]: > 25 µM
- TGI [3]: > 25 µM
- GI50 [4]: > 25 µM
- TGI [4]: > 25 µM
- GI50 [5]: > 25 µM
- TGI [5]: > 25 µM
- GI50 [6]: > 25 µM
- TGI [6]: > 25 µM
- GI50 [7]: > 25 µM
- TGI [7]: > 25 µM
- GI50 [8]: 0.143 µM
- TGI [8]: > 25 µM
- GI50 [9]: > 25 µM
- TGI [9]: > 25 µM
- GI50 [10]: 0.754 µM
- TGI [10]: > 25 µM

Structure (SMILES): CC1(C)N=C(N)N=C(N)N1c1ccc(OCC(=O)Nc2ccccc2)c(Cl)c1
- GI50 [1]: 72.3 µM
- TGI [1]: > 100 µM
- GI50 [2]: > 100 µM
- TGI [2]: > 100 µM
- GI50 [3]: 0.842 µM
- TGI [3]: > 100 µM
- GI50 [4]: 0.515 µM
- TGI [4]: > 51.6 µM
- GI50 [5]: 5.77 µM
- TGI [5]: > 100 µM
- GI50 [6]: 22.3 µM
- TGI [6]: > 100 µM
- GI50 [7]: 0.333 µM
- TGI [7]: > 100 µM
- GI50 [8]: > 60.9 µM
- TGI [8]: > 100 µM
- GI50 [9]: 0.0916 µM
- TGI [9]: > 71.8 µM
- GI50 [10]: 35 µM
- TGI [10]: > 100 µM
